Laboratory results reported in patent US20120053148A1, “INHIBITORS OF HEPATITIS C VIRUS” (GILEAD SCIENCES, INC., priority 2010, published 2012).
Like-named read-outs stand apart in the source and are kept apart here.

Tested on: HCV Replicon IB
Test: HCV replicon assay in Huh-7 cells, genotype 1b (Rluc luciferase readout)
Assay type: cell-based, hepatitis C virus
Conditions: Hepatitis C virus, Huh-7, 72 h, read-out: EC50_HCV1B_
[1] = HCV1B replicon, Huh-7 cells, 3 days

Row | Compound | EC50 [1] [nM] | EC50 [nM]
1 | Cc1cc(-c2nnc(N[C@H]3C[C@@](O)(CO)C3)o2)nc2c(C(C)(C)C)cc(C3CC3)cc12 [Compound 514] | 11.2 | 
2 | Cc1cc(-c2nnc(NC3CC4(COCO4)C3)o2)nc2c(C(C)(C)C)cc(C3CC3)cc12 (stereo not drawn) [Compound 515] | 15.9 | 
3 | Cc1cc(-c2nnc(N[C@H]3C[C@@](O)(CF)C3)o2)nc2c(C(C)(C)C)cc(C3CC3)cc12 [Compound 516] | 7.15 | 
4 | Cc1cc(-c2nnc(N[C@H]3C[C@@](O)(CF)C3)o2)nc2c(C(C)(C)C)cc(OCC(F)(F)F)cc12 [Compound 517] | 5.76 | 
5 | Cc1cc(-c2nnc(N[C@H]3C[C@@H](O)C3)s2)nc2c(C(C)(C)C)cc(OCC(F)(F)F)cc12 [Compound 518] | 51.3 | 
6 | Cc1cc(-c2nnc(Nc3cccnc3)s2)nc2c(C(C)(C)C)cc(OCC(F)(F)F)cc12 [Compound 519] | 21.1 | 
7 | CC(C)(C)c1cc(OCC(F)(F)F)cc2c(N)cc(-c3nnc(Nc4ccccn4)o3)nc12 [Compound 520] | 0.44 | 
8 | CC(C)(C)c1cc(OCC(F)(F)F)cc2c(Cl)cc(-c3nnc(NCC4OCCO4)o3)nc12 [Compound 522] | 5.85 | 
9 | Cc1cc(-c2nnc(NCC3OCCO3)o2)nc2c(C(C)(C)C)cc(OCC(F)(F)C(F)(F)F)cc12 [Compound 523] | 233 | 
10 | Cc1cc(-c2nnc(NCC3OCCO3)o2)nc2c(C(C)(C)C)cc(OC(F)F)cc12 [Compound 524] | 1.25 | 
11 | Cc1cc(-c2nnc(N[C@H]3C[C@@](C)(O)C3)o2)nc2c(C(C)(C)C)cc(OC(F)F)cc12 [Compound 525] | 0.74 | 
12 | Cc1cc(-c2nnc(NCC3OCCO3)o2)nc2c(C(C)(C)C)cc(OCC(F)F)cc12 [Compound 526] | 1.64 | 
13 | Cc1cc(-c2nnc(N[C@H]3C[C@](O)(CF)C3)o2)nc2c(C(C)(C)C)cc(OC(F)F)cc12 [Compound 527] | 0.81 | 
14 | Cc1cc(-c2nnc(N[C@H]3C[C@](O)(CF)C3)o2)nc2c(C(C)(C)C)cc(OCC(F)F)cc12 [Compound 528] | 0.41 | 
15 | Cc1cc(-c2nnc(N[C@H]3C[C@](O)(CF)C3)o2)nc2c(C(C)(C)C)cc(OCCF)cc12 [Compound 529] | 1.37 | 
16 | CSC(F)(F)Oc1cc(C(C)(C)C)c2nc(-c3nnc(N[C@H]4C[C@](O)(CF)C4)o3)cc(C)c2c1 [Compound 530] | 2.81 | 
17 | Cc1cc(-c2nnc(NCC3OCCO3)o2)nc2c(C(C)(C)C)cc(OCC3CC3)cc12 [Compound 532] |  | 41.2

Row | Compound | EC50 [1] [nM] | EC50 [nM]
18 | Cc1cc(-c2nnc(NCC3OCCO3)o2)nc2c(C(C)(C)C)cc(OCC3OCCO3)cc12 [Compound 533] | 306 | 
19 | Cc1cc(-c2nnc(N[C@H]3C[C@@H](O)C3)o2)nc2c(C(C)(C)C)cc(OCC(C)C)cc12 [Compound 534] |  | 154
20 | Cc1cc(-c2nnc(N[C@H]3C[C@@H](O)C3)o2)nc2c(C(C)(C)C)cc(OCCF)cc12 [Compound 535] | 2.54 | 
21 | Cc1cc(-c2nnc(N[C@H]3C[C@@H](O)C3)o2)nc2c(C(C)(C)C)cc(OCC(C)(C)O)cc12 [Compound 536] |  | 31.4
22 | Cc1cc(-c2nnc(Nc3cccnc3)o2)nc2c(C(C)(C)C)cc(OCC(C)(C)O)cc12 [Compound 537] | 69.1 | 
23 | Cc1cc(-c2nnc(NCC3OCCO3)o2)nc2c(OC(F)(F)F)cc(OCC(F)(F)F)cc12 [Compound 539] | 4.12 | 
24 | Cc1cc(-c2nnc(NCC3OCCO3)o2)nc2c(C3(C)OCCO3)cc(C3CC3)cc12 [Compound 540] | 36.6 | 
25 | CC(=O)c1cc(C2CC2)cc2c(C)cc(-c3nnc(NCC4OCCO4)o3)nc12 [Compound 541] | 18.6 | 
26 | Cc1cc(-c2nnc(NCC3OCCO3)o2)nc2c(C(C)(C)O)cc(C3CC3)cc12 [Compound 542] | 43.8 | 
27 | CCC(C)(O)c1cc(C2CC2)cc2c(C)cc(-c3nnc(NCC4OCCO4)o3)nc12 (stereo not drawn) [Compound 543] | 155 | 
28 | Cc1cc(-c2nnc(NCC3OCCO3)o2)nc2c(C3(C)SCCS3)cc(C3CC3)cc12 [Compound 544] | 46.7 | 
29 | COC(C)(C)c1cc(C2CC2)cc2c(C)cc(-c3nnc(NCC4OCCO4)o3)nc12 [Compound 545] | 7.68 | 
30 | Cc1cc(-c2nnc(NCC3OCCO3)o2)nc2c(C(C)(C)F)cc(C3CC3)cc12 [Compound 546] | 7.48 | 
31 | Cc1cc(-c2nnc(NCC3OCCO3)o2)nc2c(S(C)(=O)=O)cc(C3CC3)cc12 [Compound 547] | 185 | 
32 | Cc1cc(-c2nnc(NCC3OCCO3)o2)nc2c(OC(C)(C)C)cc(C3CC3)cc12 [Compound 548] | 37.1 | 
33 | Cc1cc(C(=O)NCc2cnccn2)nc2c(-c3ccccc3)cc(C3CC3)cc12 [Compound 549] | 65.5 | 
